The values below come from patent US20260263555A1, “ANNEXIN A1 DELAYED DOSING” (Reso Ther Pharma A/S, priority 2023, published 2026).

“Also recorded” adds a separate entry of the source. No end group written: not given here.

Test [1] has as its system rat model of acute myocardial infarction. Put plainly: Delayed Annexin A1 peptide dosing in a rat model of acute myocardial infarction (30 minutes ischemia, 24 hours reperfusion; Evans blue/TTC infarct size). It counts as in vivo, Sprague Dawley rats. The note with it: vs vehicle. On the procedure: Myocardial infarction was induced by 30 minutes ischemia via obstruction of coronary perfusion by occlusion of the left coronary artery followed by 24 hours reperfusion. Sprague Dawley rats were treated by administration with Peptide 1 (30 ug/kg) three times with treatment initiation either at the time of reperfusion (T0 h, T3 h, T6 h) (Group 1), or with a delayed treatment initiation starting either at 1 hour post establishment of reperfusion (T1 h, T4 h, T7 h) (Group 2), or at 2 hours post establishment of reperfusion (T2 h, T5 h, T8 h) (Group 3).
At the end of 24 hours reperfusion period, the left coronary artery was reoccluded and Evans blue dye solution injected. Hearts were excised from the rat and stored at −20° C. before being sliced into 1 mm thick transverse sections. Heart sections were incubated with triphenyltetrazolium chloride (TTC, 1%) at 37° C. for 30 minutes to demarcate the viable and nonviable myocardium within the risk zone. Area at risk and infarcted area were determined using image software.

Test [2] deals with recruitment of neutrophils to the site of injury/inflammation. The note with it: models of myocardial I/R, mesentery I/R, glycogen peritonitis and IL1 air pouch; cited from earlier work.

For the substance “AMVSEFLKQAWFIENEEQEYVQTLKSSKGGPGSAVSPYPTFNPSSDV (AMVSEFLKQAWFIENEEQEYVQTLKSSKGGPGSAVSPYPTFNPSSDV-NH2; ends and bridges not checked) [Peptide 1]”, the infarct size entry in test [1] (Group 1: 30 ug/kg three times (T0 h, T3 h, T6 h), first dosage at establishment of reperfusion) is listed as “significantly reduced infarct size”; in test [1] (Group 2: 30 ug/kg three times (T1 h, T4 h, T7 h), first dosage 1 hour post establishment of reperfusion), “reduced infarct size to a similar degree; also recorded: significantly reduced infarct size”; in test [1] (Group 3: 30 ug/kg three times (T2 h, T5 h, T8 h), first dosage 2 hours post establishment of reperfusion), “reduced infarct size to a similar degree; also recorded: significantly reduced infarct size”.

For the substance “Ac2-26: Annexin A1 peptide which mimics the 2nd to the 26th amino acids of the 54-amino acid N-terminal region (Ac-AMVSEFLKQAWFIENEEQEYVQTVK; UniProt P04083 2-26, looked up, fragment)”, in test [2], the “recruitment of neutrophils to the site of injury/inflammation” value was “significantly reduce the recruitment of neutrophils”.
